Measured values as given in ChEMBL document CHEMBL5661943, “ASAP - In vitro antiviral effect” (2024).

How the values were obtained:
dengue virus type 2 [1] = experiment: Functional immunofluorescence assay to measure dose dependent changes in antiviral-drug inhibitory efficacy against Dengue virus type 2 Thailand/16681/84 in Vero E6/TMPRSS2 cells (cotreated with P-gp inhibitor, Elacridar). Cells are treated with antiviral candidates that are serially diluted, following infection, cells are fixed. EC50 is reported via analysis of immunofluorescence staining. The assay has been performed by Icahn School of Medicine at Mount Sinai.; type: organism-based, Chlorocebus sabaeus, VeroE6/TMPRSS2; settings: Dengue virus
Zika virus [2] = experiment: Functional CPE-based assay to measure dose dependent changes in antiviral-drug inhibitory efficacy against Zika virus MR766 in Vero E6 miRFP670 cells. Cells are treated with antiviral candidates that are serially diluted. EC50 is reported via analysis of MTS assay as a readout of CPE. The assay has been performed by KU Leuven.; type: organism-based, Chlorocebus sabaeus, Vero C1008; settings: Zika virus; for EC50: Vero C1008
dengue virus type 2 [3] = experiment: Functional assay to measure dose dependent changes in antiviral-drug inhibitory efficacy against Dengue virus type 2 New Guinea C in Vero E6 miRFP670 cells (cotreated with P-gp inhibitor, CP100356). Cells are treated with antiviral candidates that are serially diluted, following infection, cells are fixed. EC50 is reported via analysis of fluorescence intensity using high-content imager. The …; type: organism-based, Chlorocebus sabaeus, Vero C1008; settings: Dengue virus
Zika virus [4] = experiment: EC50 is reported via analysis of immunofluorescence staining. The assay has been performed by Icahn School of Medicine at Mount Sinai.; type: functional, organism-based, Chlorocebus sabaeus, VeroE6/TMPRSS2; settings: Zika virus; for EC90: P-gp concentration 2 uM, P-gp inhibitor Elacidar

Row | Structure (SMILES) | EC50 (dengue virus type 2 [1]; VeroE6/TMPRSS2) | EC90 (dengue virus type 2 [1]; VeroE6/TMPRSS2) | EC50 (Zika virus [2]) | EC50 (dengue virus type 2 [3]; Vero C1008) | EC50 (Zika virus [4]; VeroE6/TMPRSS2) | further results
1 | Clc1ccc2[nH]cc(Cc3ccc(-c4nn[nH]n4)cc3)c2c1 | 24.6 µM | 34 µM | > 50 µM | > 50 µM | 39.4 µM | EC90 (Zika virus [2]; Vero C1008, Maximum measured 1.604 %, Minimum measured -1.05 %): > 50 µM; EC90 (dengue virus type 2 [3]; Vero C1008): > 50 µM; EC90 (Zika virus [4]; VeroE6/TMPRSS2, Baseline response 0 %, Hill slope -2.483, Maximum measured 171.794 %, Maximum response 100 %, Minimum measured 35.965 %, R squared 0.343): > 50 µM
2 | COC(=O)c1cc(NC(=O)c2cc(Cl)cc(NC(=O)OCc3ccccc3)c2)cc(-c2nnn[nH]2)c1 | 39.8 µM |  | > 50 µM | 43.1 µM | > 16.7 µM | EC90 (dengue virus type 2 [1]; VeroE6/TMPRSS2, Baseline response 0 %, Hill slope -17.631, Maximum measured 314.134 %, Maximum response 266.23 %, Minimum measured 4.599 %, P-gp concentration 2 uM, R squared 0.779, P-gp inhibitor Elacidar): 45 µM; EC90 (Zika virus [2]; Vero C1008, Maximum measured 4.051 %, Minimum measured -3.87 %): > 50 µM; EC90 (dengue virus type 2 [3]; Vero C1008): 49.4 µM; EC90 (Zika virus [4]; VeroE6/TMPRSS2, Maximum measured 163.156 %, Minimum measured 112.225 %): > 16.7 µM
3 | O=C(Nc1ccc2c(c1)CNC2)c1cc(Br)cc2[nH]c(-c3ccccc3)nc12 | > 50 µM |  | < 0.391 µM | > 50 µM | > 5.56 µM | EC90 (dengue virus type 2 [1]; VeroE6/TMPRSS2, Maximum measured 303.364 %, Minimum measured 144.726 %, P-gp concentration 2 uM, P-gp inhibitor Elacidar): > 50 µM; EC90 (Zika virus [2]; Vero C1008, Baseline response 0 %, Hill slope -0.169, Maximum measured 22.843 %, Maximum response 100 %, Minimum measured -3.22 %, R squared 0.045): < 0.391 µM; EC90 (dengue virus type 2 [3]; Vero C1008, Baseline response 0 %, Hill slope -0.881, Maximum measured 119.709 %, Maximum response 100 %, Minimum measured 77.354 %, P-gp concentration 500 nM, R squared 0.142, P-gp inhibitor CP100356): > 50 µM; EC90 (Zika virus [4]; VeroE6/TMPRSS2, Maximum measured 77.487 %, Minimum measured 34.255 %): > 5.56 µM
4 | O=C(Nc1ccc2c(c1)CNC2)c1cc(Cl)cc(C2CC2)c1 | > 50 µM |  | < 0.391 µM | > 12.5 µM | > 5.56 µM | EC90 (dengue virus type 2 [1]; VeroE6/TMPRSS2, Baseline response 0 %, Hill slope -0.218, Maximum measured 127.968 %, Maximum response 100 %, Minimum measured 35.242 %, P-gp concentration 2 uM, R squared 0.016, P-gp inhibitor Elacidar): > 50 µM; EC90 (Zika virus [2]; Vero C1008, Baseline response 0 %, Hill slope -0.16, Maximum measured 19.084 %, Maximum response 100 %, Minimum measured -10.525 %, R squared 0.01): < 0.391 µM; EC90 (dengue virus type 2 [3]; Vero C1008, Baseline response 0 %, Hill slope -18.192, Maximum measured 115.18 %, Maximum response 100 %, Minimum measured 61.318 %, P-gp concentration 500 nM, R squared 0.219, P-gp inhibitor CP100356): > 12.5 µM; EC90 (Zika virus [4]; VeroE6/TMPRSS2, Baseline response 0 %, Hill slope -0.303, Maximum measured 133.833 %, Maximum response 100 %, Minimum measured 73.063 %, R squared 0.118): > 5.56 µM
5 | O=C(Nc1cc(Cl)cc(C(=O)NCc2ccc(-c3nnn[nH]3)cc2)c1)OCc1ccccc1 | 24.8 µM | 40.9 µM | > 50 µM | > 50 µM | > 16.7 µM | EC90 (Zika virus [2]; Vero C1008, Baseline response 0 %, Hill slope 2.99, Maximum measured 29.669 %, Maximum response 100 %, Minimum measured 0.824 %, R squared 0.934): > 50 µM; EC90 (dengue virus type 2 [3]; Vero C1008, Maximum measured 125.704 %, Minimum measured 70.659 %, P-gp concentration 500 nM, P-gp inhibitor CP100356): > 50 µM; EC90 (Zika virus [4]; VeroE6/TMPRSS2, Maximum measured 73.474 %, Minimum measured 51.372 %): > 16.7 µM
6 | O=C(Nc1ccc2c(c1)CNC2)c1cc(Cl)cc(-n2cccc2)c1 | 15.1 µM |  | > 50 µM | 18.1 µM | > 5.56 µM | EC90 (dengue virus type 2 [1]; VeroE6/TMPRSS2, Baseline response 0 %, Hill slope -12.71, Maximum measured 168.092 %, Maximum response 100 %, Minimum measured 22.727 %, P-gp concentration 2 uM, R squared 0.109, P-gp inhibitor Elacidar): > 16.7 µM; EC90 (Zika virus [2]; Vero C1008, Baseline response 0 %, Hill slope 0.167, Maximum measured 17.974 %, Maximum response 100 %, Minimum measured 0.845 %, R squared 0.067): > 50 µM; EC90 (dengue virus type 2 [3]; Vero C1008, Baseline response 0 %, Hill slope -1.567, Maximum measured 91.76 %, Maximum response 100 %, Minimum measured 2.031 %, P-gp concentration 500 nM, R squared 0.898, P-gp inhibitor CP100356): > 50 µM; EC90 (Zika virus [4]; VeroE6/TMPRSS2, Maximum measured 131.342 %, Minimum measured 97.756 %): > 5.56 µM; EC90 (Zika virus [4]; VeroE6/TMPRSS2, Baseline response 0 %, Hill slope -0.378, Maximum measured 125.075 %, Maximum response 100 %, Minimum measured 52.976 %, R squared 0.223): > 5.56 µM
7 | CC(C)Cc1nc2c(C(=O)Nc3ccc4c(c3)CNC4)cc(Br)cc2[nH]1 | > 5.56 µM |  | > 50 µM | > 0.781 µM | > 5.56 µM | EC90 (dengue virus type 2 [1]; VeroE6/TMPRSS2, Maximum measured 192.149 %, Minimum measured 144.973 %, P-gp concentration 2 uM, P-gp inhibitor Elacidar): > 5.56 µM; EC90 (Zika virus [2]; Vero C1008, Baseline response 0 %, Hill slope 1.82, Maximum measured 17.962 %, Maximum response 100 %, Minimum measured -5.537 %, R squared 0.817): > 50 µM; EC90 (dengue virus type 2 [3]; Vero C1008, Maximum measured 122.11 %, Minimum measured 121.973 %, P-gp concentration 500 nM, P-gp inhibitor CP100356): > 0.781 µM; EC90 (Zika virus [4]; VeroE6/TMPRSS2, Baseline response 0 %, Hill slope -10.435, Maximum measured 137.671 %, Maximum response 100 %, Minimum measured 68.671 %, R squared 0.096): > 5.56 µM
8 | O=C(NS(=O)(=O)C1CC1)c1cc(Cl)ccc1NS(=O)(=O)c1ccc(Oc2ccccc2Cl)cc1 | 42.5 µM |  | > 50 µM | 44.5 µM | 45.9 µM | EC90 (dengue virus type 2 [1]; VeroE6/TMPRSS2, Baseline response 0 %, Hill slope -20.818, Maximum measured 101.748 %, Maximum response 70 %, Minimum measured 2.339 %, P-gp concentration 2 uM, R squared 0.5, P-gp inhibitor Elacidar): 47.3 µM; EC90 (Zika virus [2]; Vero C1008, Baseline response 0 %, Hill slope 1.706, Maximum measured 45.349 %, Maximum response 100 %, Minimum measured -3.564 %, R squared 0.879): > 50 µM; EC90 (dengue virus type 2 [3]; Vero C1008, Baseline response 0 %, Hill slope -56.608, Maximum measured 108.404 %, Maximum response 100 %, Minimum measured 0.137 %, P-gp concentration 500 nM, R squared 0.959, P-gp inhibitor CP100356): 46.3 µM; EC90 (Zika virus [4]; VeroE6/TMPRSS2, Baseline response 0 %, Hill slope -22.702, Maximum measured 122.036 %, Maximum response 100 %, Minimum measured 12.187 %, R squared 0.505): > 50 µM
9 | NCc1cccc(CCc2cc(Cl)cc(NC(=O)OCc3ccccc3)c2)c1 | > 1.85 µM |  | > 50 µM | 7.13 µM | > 50 µM | EC90 (dengue virus type 2 [1]; VeroE6/TMPRSS2, Maximum measured 240.936 %, Minimum measured 110.203 %, P-gp concentration 2 uM, P-gp inhibitor Elacidar): > 1.85 µM; EC90 (Zika virus [2]; Vero C1008, Maximum measured 1.168 %, Minimum measured -5.971 %): > 50 µM; EC90 (dengue virus type 2 [3]; Vero C1008, Baseline response 0 %, EC90 CI (lower) 3.921 uM, EC90 CI (upper) 6.549 uM, Hill slope -6.432, Maximum measured 108.307 %, Maximum response 100 %, Minimum measured 4.257 %, P-gp concentration 500 nM, R squared 0.964, P-gp inhibitor CP100356): 10 µM; EC90 (Zika virus [4]; VeroE6/TMPRSS2, Maximum measured 110.897 %, Minimum measured 60.854 %): > 50 µM
10 | O=C(Nc1ccc2c(c1)CNC2)c1cccc2[nH]ncc12 | > 50 µM |  | < 0.391 µM | < 0.391 µM |  | EC90 (dengue virus type 2 [1]; VeroE6/TMPRSS2, Maximum measured 158.189 %, Minimum measured 143.688 %, P-gp concentration 2 uM, P-gp inhibitor Elacidar): > 50 µM; EC90 (Zika virus [2]; Vero C1008, Baseline response 0 %, Hill slope -0.113, Maximum measured 48.96 %, Maximum response 100 %, Minimum measured -6.302 %, R squared 0.011): < 0.391 µM; EC90 (dengue virus type 2 [3]; Vero C1008, Baseline response 0 %, Hill slope 0.492, Maximum measured 128.823 %, Maximum response 100 %, Minimum measured 60.42 %, P-gp concentration 500 nM, R squared 0.116, P-gp inhibitor CP100356): < 0.391 µM
11 | CCOc1cccc(-c2ccc(S(=O)(=O)Nc3ccc(Cl)cc3C(=O)O)cc2C)c1 | 0.175 µM | > 16.7 µM | > 50 µM | 22.3 µM | 2.44 µM | EC90 (Zika virus [2]; Vero C1008, Baseline response 0 %, Hill slope -0.317, Maximum measured 5.247 %, Maximum response 100 %, Minimum measured -4.425 %, R squared 0.236): > 50 µM; EC90 (dengue virus type 2 [3]; Vero C1008, Baseline response 0 %, Hill slope -31.955, Maximum measured 106.035 %, Maximum response 100 %, Minimum measured 0.035 %, P-gp concentration 500 nM, R squared 0.9, P-gp inhibitor CP100356): 23.9 µM; EC90 (Zika virus [4]; VeroE6/TMPRSS2, Baseline response 0 %, Hill slope -0.481, Maximum measured 136.466 %, Maximum response 100 %, Minimum measured 2.895 %, R squared 0.53): > 50 µM
12 | O=C(Nc1ccc2c(c1)CNCCC2)c1cc(Cl)cc2[nH]ncc12 | 26 µM | 45 µM | > 50 µM | > 1.56 µM | 47.6 µM | EC90 (Zika virus [2]; Vero C1008, Baseline response 0 %, Hill slope 0.723, Maximum measured 1.937 %, Maximum response 100 %, Minimum measured -1.308 %, R squared 0.05): > 50 µM; EC90 (Zika virus [2]; Vero C1008, Maximum measured 5.01 %, Minimum measured -5.78 %): > 50 µM; EC90 (dengue virus type 2 [3]; Vero C1008, Baseline response 0 %, Hill slope 9.827, Maximum measured 112.729 %, Maximum response 100 %, Minimum measured 86.907 %, P-gp concentration 500 nM, R squared 0.124, P-gp inhibitor CP100356): > 1.56 µM; EC90 (Zika virus [4]; VeroE6/TMPRSS2, Baseline response 0 %, Hill slope -16.818, Maximum measured 150.619 %, Maximum response 100 %, Minimum measured 30.484 %, R squared 0.241): > 50 µM
